Measurements published in PubChem BioAssay (NCI).
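GI50 is the concentration that inhibits growth by half. At the TGI there is no net growth.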

Tests used:
Test in all cases: DTP human tumour cell line panel, 384-well format
[1] = test system: NCI-H226 lung
[2] = test system: NCI-H23 lung
[3] = test system: NCI-H322M lung
[4] = test system: NCI-H460 NSCLC
[5] = test system: NCI-H522 lung
[6] = test system: NCI/ADR-RES ovarian
[7] = test system: OVCAR-3 ovarian
[8] = test system: OVCAR-4 ovarian
[9] = test system: OVCAR-5 ovarian
[10] = test system: OVCAR-8 ovarian
[11] = test system: PC-3 prostate
[12] = test system: RPMI-8226 leukemia
[13] = test system: RXF 393 renal
[14] = test system: SF-268 CNS
[15] = test system: SF-295 CNS
[16] = test system: SF-539 CNS
[17] = test system: SK-MEL-28 melanoma
[18] = test system: SK-MEL-5 melanoma
[19] = test system: SK-OV-3 ovarian
[20] = test system: SN12C renal
[21] = test system: SNB-19 CNS
[22] = test system: SNB-75 CNS
[23] = test system: SW-620 colon
[24] = test system: T-47D breast
[25] = test system: TK-10 renal
[26] = test system: U251 glioblastoma
[27] = test system: UACC-257 melanoma
[28] = test system: UACC-62 melanoma
[29] = test system: UO-31 renal

`Cc1cnc(CNC(=O)c2c(=O)c3ccc(N4CCCN(C)CC4)nc3n3c2sc2ccccc23)cn1` was tested, and the GI50 [1] was 0.741 µM, the TGI [1] was greater than 100 µM and the GI50 [2] was 0.714 µM. The TGI [2] was greater than 100 µM, the GI50 [3] was 0.877 µM and the TGI [3] was greater than 100 µM. It also gave a GI50 [4] of 0.0228 µM, a TGI [4] of 1.12 µM and a GI50 [5] of 19.9 µM. The TGI [5] was greater than 100 µM, the GI50 [6] was greater than 100 µM and the TGI [6] was greater than 100 µM. The GI50 [7] was 0.462 µM, the TGI [7] was 48.5 µM and the GI50 [8] was 0.383 µM. It also gave a TGI [8] of 5.56 µM, a GI50 [9] of 27.7 µM and a TGI [9] greater than 100 µM. For the same compound, the GI50 [10] was 0.234 µM, the TGI [10] was greater than 100 µM and the GI50 [11] was 1.6 µM. The TGI [11] was 22.3 µM, the GI50 [12] was 0.0583 µM and the TGI [12] was 1.62 µM. The GI50 [13] was 0.0806 µM, the TGI [13] was greater than 100 µM and the GI50 [14] was 0.0241 µM. It also gave a TGI [14] of 0.088 µM, a GI50 [15] of 0.608 µM and a TGI [15] greater than 100 µM. For the same compound, the GI50 [16] was 0.259 µM, the TGI [16] was greater than 100 µM and the GI50 [17] was 27 µM. It also gave a TGI [17] greater than 100 µM, a GI50 [18] of 0.172 µM and a TGI [18] of 48 µM. For the same compound, the GI50 [19] was 1.35 µM, the TGI [19] was greater than 100 µM and the GI50 [20] was 0.307 µM. For the same compound, the TGI [20] was greater than 100 µM, the GI50 [21] was 0.322 µM and the TGI [21] was greater than 100 µM. The GI50 [22] was 0.832 µM, the TGI [22] was greater than 100 µM and the GI50 [23] was 0.0991 µM. It also gave a TGI [23] greater than 100 µM, a GI50 [24] of 21.5 µM and a TGI [24] greater than 100 µM. For the same compound, the GI50 [25] was 9.17 µM, the TGI [25] was greater than 100 µM and the GI50 [26] was 0.517 µM. It also gave a TGI [26] greater than 100 µM, a GI50 [27] of 7.63 µM and a TGI [27] greater than 100 µM. For the same compound, the GI50 [28] was 0.175 µM, the TGI [28] was greater than 100 µM and the GI50 [29] was 1.54 µM. It also gave a TGI [29] greater than 100 µM.
